Laboratory results: the Deep4Chem optical property database

Experiment: solvent given as SMILES

Work on `CCN1C(=CC2=C([O-])C(=CC3=[N+](CC)c4ccccc4C3(C)C)C2=O)C(C)(C)c2ccccc21` yielded an absorption maximum (in CO) of 628 nm, an absorption maximum (in ClC(Cl)Cl) of 635 nm and an absorption maximum (in ClCCl) of 637 nm.
Work on `CN1c2cc3nc4cc(F)c(F)cc4nc3cc2N(C)C1(C)C` yielded an absorption maximum (in CCO) of 457 nm.
`CC(C)[Si](C#Cc1c2cc3ccccc3cc2c(C#C[Si](C(C)C)(C(C)C)C(C)C)c2nc3c(ccc4cc5ccccc5cc43)nc12)(C(C)C)C(C)C` showed an absorption maximum (in CCCCCC) of 644 nm.
`COc1ccc(-c2nc3c(c4c2-c2ccccc2CC4)-c2ccccc2CC3)cc1` gave an absorption maximum (in C1CCOC1) of 322 nm, an absorption maximum (in CC#N) of 321 nm and an absorption maximum (in CCCCCC) of 322 nm. The absorption maximum (in CCOC(C)=O) was 310 nm, the absorption maximum (in CO) was 318 nm and the absorption maximum (in CS(C)=O) was 320 nm. For the same compound, the absorption maximum (in Cc1ccccc1) was 320 nm and the absorption maximum (in ClCCl) was 322 nm.
For `Cc1cc2cc(N3c4ccccc4Oc4ccccc43)ccc2c(=O)o1`, the absorption maximum (in Cc1ccccc1) was 395 nm.
`CCCCn1c2ccc(-c3ccc4c(c3)c3c5c(ccc6ccc7ccccc7c65)ccc3n4CCCC)cc2c2c3c(ccc4ccc5ccccc5c43)ccc21` showed an absorption maximum (in ClCCl) of 336 nm.
`F[B-]1(F)OC(c2ccccc2)=Cc2cc3[n+](c[n+]21)[B-](F)(F)OC(c1ccccc1)=C3` showed an absorption maximum (in ClCCl) of 475 nm.
Compound `COc1ccc(-n2nc(C#N)c(N3CCOCC3)n2)cc1` has an absorption maximum (in CC#N) of 324 nm.
With `c1ccc(-c2nc(-c3ccccc3)nc(-c3ccc(-n4c5ccccc5c5ccccc54)cc3)n2)cc1` the absorption maximum (in Cc1ccccc1) was 364 nm.
`COC(=O)C1=C(C(=O)OC)C2=C[C@H]3c4ccccc4[C@]2([Se]1)c1ccccc13` showed an absorption maximum (in ClCCl) of 370 nm.
With `Cc1cc2nc3c(=O)n(C)c(=O)n(C)c3nc2cc1C` the absorption maximum (in CC#N) was 375 nm.
With `Cc1cc(O)c(C(C)C)cc1/N=C/c1ccc(C(F)(F)F)cc1` the absorption maximum (in C1CCCCC1) was 355 nm, the absorption maximum (in C1CCOC1) was 363 nm and the absorption maximum (in C1COCCO1) was 361 nm. For the same compound, the absorption maximum (in CC#N) was 357 nm, the absorption maximum (in CC(C)(C)O) was 368 nm and the absorption maximum (in CC(C)O) was 367 nm. It also gave an absorption maximum (in CCCCCC) of 353 nm, an absorption maximum (in CCCCO) of 367 nm and an absorption maximum (in CCO) of 364 nm. It also gave an absorption maximum (in CCOC(C)=O) of 347 nm, an absorption maximum (in CN(C)C=O) of 364 nm and an absorption maximum (in CO) of 361 nm. The absorption maximum (in CS(C)=O) was 366 nm, the absorption maximum (in ClC(Cl)Cl) was 344 nm and the absorption maximum (in ClCCl) was 343 nm. It also gave an absorption maximum (in O) of 358 nm and an absorption maximum (in OCCO) of 363 nm.
Work on `Clc1ccc(N2c3sc4ccccc4c3Sc3sc4ccccc4c32)cc1` yielded an absorption maximum (in ClCCl) of 310 nm.
With `CCOC(=O)c1ccccc1-c1c2ccc(=[N+](CC)CC)cc-2oc2c1c(=O)oc1cc(N(CC)CC)ccc12` the absorption maximum (in CCO) was 595 nm, the absorption maximum (in ClC(Cl)Cl) was 601 nm and the absorption maximum (in O) was 596 nm.
Work on `COc1ccc(N2c3cc(OC)ccc3N=c3cc4c(cc32)=Nc2cc(C(C)(C)C)cc(C(C)(C)C)c2O4)cc1` yielded an absorption maximum (in CC#N) of 539 nm, an absorption maximum (in CCCCCC) of 562 nm and an absorption maximum (in CO) of 558 nm.
In the case of `CC1=[N+]2C(=C(c3ccc(C=O)cc3)c3ccc(C)n3[B-]2(F)F)C=C1c1cc2n(c1)[B-](F)(F)[N+]1=CC=CC1=C2c1c(C)cc(C)cc1C`, the absorption maximum (in C1CCCCC1) is reported as 604.5 nm and the absorption maximum (in CCOC(C)=O) is reported as 604.5 nm.
Work on `[NH3+]c1ccc2c(c1)Cc1ccccc1-2` yielded an absorption maximum (in O) of 299 nm.
Compound `CC(C)c1cccc(C(C)C)c1N1C(c2ccccc2)=Cc2ccc3ccccc3[n+]2[B-]1(F)F` has an absorption maximum (in ClCCl) of 447 nm.
Compound `CC1(C)CCc2c(c3ccccc3c3nc4c5c(c6ccccc6c4nc23)OC(C)(C)CC5)O1` has an absorption maximum (in C1CCOC1) of 458.09 nm, an absorption maximum (in C1COCCO1) of 459.98 nm and an absorption maximum (in CC#N) of 459.98 nm. For the same compound, the absorption maximum (in CC(C)O) was 454.96 nm, the absorption maximum (in CCCCCC) was 452.08 nm and the absorption maximum (in CN(C)C=O) was 458.93 nm. It also gave an absorption maximum (in CO) of 457.04 nm, an absorption maximum (in ClC(Cl)Cl) of 461.04 nm and an absorption maximum (in c1ccccc1) of 459.98 nm.
Work on `C1=C(c2ccc(-c3cccs3)s2)CCC(c2ccccc2)C1` (stereo not drawn) yielded an absorption maximum (in C1CCOC1) of 342 nm, an absorption maximum (in CC#N) of 341 nm and an absorption maximum (in CCCCCC) of 341 nm. For the same compound, the absorption maximum (in CCO) was 341 nm, the absorption maximum (in OCCOCCO) was 346 nm and the absorption maximum (in c1ccncc1) was 347 nm.
For `CC1=C(/C=C/c2ccccc2)C2=Cc3c(/C=C/c4ccccc4)c(C)c(C)n3[B-](F)(F)[N+]2=C1C`, the absorption maximum (in CC#N) was 572 nm.
For `c1ccc(-c2ccc(-c3ccc(N(c4ccccc4)c4ccccc4)cc3)c3nsnc23)cc1`, the absorption maximum (in C1CCOC1) was 437 nm, the absorption maximum (in CC(C)=O) was 424 nm and the absorption maximum (in CCCCCC) was 438 nm. The absorption maximum (in CCOCC) was 435 nm.
In the case of `C(=C\c1nc(-c2ccccc2)c2ccccn12)/c1nc(-c2ccccc2)c2ccccn12`, the absorption maximum (in CC#N) is reported as 438 nm.
In the case of `CC(=O)Nc1ccc(O)cc1`, the absorption maximum (in C1CCOC1) is reported as 293 nm, the absorption maximum (in CC#N) is reported as 290 nm and the absorption maximum (in CCCCO) is reported as 290 nm. The absorption maximum (in CO) was 290 nm and the absorption maximum (in CS(C)=O) was 293 nm.
With `O=[N+]([O-])c1ccc(NCCN(Cc2c3ccccc3cc3ccccc23)c2ccc([N+](=O)[O-])cc2[N+](=O)[O-])c([N+](=O)[O-])c1` the absorption maximum (in C1CCCCC1) was 355 nm, the absorption maximum (in C1CCOC1) was 372 nm and the absorption maximum (in CC#N) was 371 nm. For the same compound, the absorption maximum (in CC(C)=O) was 371 nm, the absorption maximum (in CCO) was 368 nm and the absorption maximum (in CN(C)C=O) was 267 nm. For the same compound, the absorption maximum (in CO) was 369 nm and the absorption maximum (in ClC(Cl)Cl) was 355 nm.
`CC(=O)c1cc2c(cc1F)NC(C)(C)CC2=O` gave an absorption maximum (in CC#N) of 352 nm.
For `Cc1cccc(NC(=O)c2ccc(N(C)C)cc2)c1`, the absorption maximum (in C1CCCCC1) was 306 nm, the absorption maximum (in C1CCOC1) was 311 nm and the absorption maximum (in CC#N) was 314 nm. For the same compound, the absorption maximum (in CCOCC) was 306 nm.
`CCCCN1c2ccccc2Sc2cc(/C=C/C3=Nc4ccc5ccccc5c4C3(C)C)ccc21` showed an absorption maximum (in C1CCCCC1) of 414 nm, an absorption maximum (in C1COCCO1) of 417 nm and an absorption maximum (in CCOC(C)=O) of 416 nm. It also gave an absorption maximum (in CCOCC) of 414 nm and an absorption maximum (in Cc1ccccc1) of 423 nm.
With `c1ccc(N2c3ccc4ccccc4c3-c3c4ccccc4nc[n+]3[B-]2(c2ccccc2)c2ccccc2)cc1` the absorption maximum (in C1CCC2CCCCC2C1) was 542 nm, the absorption maximum (in C1CCCCC1) was 539 nm and the absorption maximum (in C1CCOC1) was 535 nm. The absorption maximum (in CC#N) was 527 nm, the absorption maximum (in CC(C)=O) was 530 nm and the absorption maximum (in CCCCCC) was 537 nm. It also gave an absorption maximum (in CCOC(C)=O) of 532 nm, an absorption maximum (in CN(C)C=O) of 532 nm and an absorption maximum (in Cc1ccccc1) of 539 nm. It also gave an absorption maximum (in ClC(Cl)Cl) of 541 nm.
`C(=C/c1ccc(N(c2ccccc2)c2ccccc2)cc1)/c1ccc(N(c2ccccc2)c2ccccc2)cc1` showed an absorption maximum (in ClCCl) of 370 nm.
Compound `c1ccc2c(c1)ccc1oc3ccc4cc5oc6ccc7ccc8oc9ccc%10ccccc%10c9c8c7c6c5cc4c3c12` has an absorption maximum (in CC#N) of 352 nm.
Compound `C[SiH]1c2ccccc2-c2cc3c(cc21)-c1ccccc1[SiH]3C` (stereo not drawn) has an absorption maximum (in ClCCl) of 324 nm.
With `CCCCN1C(=O)c2cccc3cc(C#CC#Cc4cc5c6c(cccc6c4)C(=O)N(CCCC)C5=O)cc(c23)C1=O` the absorption maximum (in ClCCl) was 314 nm.
Compound `C=CC1CN2CCC1CC2[C@H](O)c1ccnc2ccc(OC)cc12` (stereo partly drawn) has an absorption maximum (in O) of 347 nm.
`O=c1oc2ccccc2nc1-c1ccccc1` gave an absorption maximum (in c1ccccc1) of 332 nm.
With `Oc1cc(-c2ccco2)ccc1-c1nc2ccccc2s1` the absorption maximum (in ClCCl) was 361 nm and the absorption maximum (in O) was 354 nm.
For `Cc1ccc2c(c1)C(C)(C)c1cc(C)ccc1N2c1ccc2c(c1)C(C)(C)c1cc(N3c4ccc(C)cc4C(C)(C)c4cc(C)ccc43)ccc1S2(=O)=O`, the absorption maximum (in ClCCl) was 370 nm.
With `CCN(CC)c1ccc(C2=C3C(C)=CC(/C=C/c4ccc(OCCCN=[N+]=[N-])cc4)=[N+]3[B-](F)(F)n3c(C)cc(C)c32)cc1` the absorption maximum (in CO) was 570 nm.
In the case of `CCOC(=O)c1cc(C(=O)OCC)c2cc(N)ccc2n1`, the absorption maximum (in CCO) is reported as 421 nm.
